Where two headings read alike, the source gives them in different places.
Experiments:
NAMPT = NAMPT (Homo sapiens (Human), UniProt P43490); test: Assay 1: Biochemical Inhibition Assay (NAMPT enzymatic reaction, NMN quantified by mass spectrometry); details: read-out: Biochemical (IC50);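 further: recombinant His-tagged human NAMPT preincubated with compound 15 min, then reacted 30 min at rt with 1 µM NAM, 100 µM PRPP, 2.5 mM ATP, NMN product read by RapidFire MS, normalized to L-Cystathionine internal standard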
Sequence of NAMPT (P43490 whole entry): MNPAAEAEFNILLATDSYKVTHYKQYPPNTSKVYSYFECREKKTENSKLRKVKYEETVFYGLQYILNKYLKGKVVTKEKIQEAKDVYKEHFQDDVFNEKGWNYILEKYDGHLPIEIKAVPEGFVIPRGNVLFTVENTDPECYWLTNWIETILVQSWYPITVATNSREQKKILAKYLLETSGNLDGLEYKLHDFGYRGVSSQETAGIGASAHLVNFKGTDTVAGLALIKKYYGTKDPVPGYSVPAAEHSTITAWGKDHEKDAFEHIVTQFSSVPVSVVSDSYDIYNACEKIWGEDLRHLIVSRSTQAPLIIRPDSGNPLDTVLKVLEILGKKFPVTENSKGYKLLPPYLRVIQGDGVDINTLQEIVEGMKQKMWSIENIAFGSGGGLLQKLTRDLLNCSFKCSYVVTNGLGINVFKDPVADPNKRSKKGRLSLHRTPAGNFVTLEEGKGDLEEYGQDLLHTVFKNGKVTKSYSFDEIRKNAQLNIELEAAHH

A2780 cells = test: Assay 2: In-Vitro Cell Proliferation Assay (A2780 cells, SRB readout, 72 hours); format: cell-based; details: A2780 cells, 72 hours, SRB, read-out: Cell Proliferation (IC50);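 further: viable cells counted via sulforhodamine B staining, absorbance at 570 nm, after 72 h exposure at 37 °C, DMSO 0.1% as control, media-only background subtracted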

SMILES	IC50 (NAMPT) [nM]	IC50 (A2780 cells; Homo sapiens, A2780, 72 h) [nM]	IC50 (A2780 cells) [nM]
O=C(NCc1ccc(S(=O)(=O)N2CC(F)(F)C2)cc1)c1ccc2nccn2c1 [Example 239, N-[[4-(3,3-difluoroazetidin-1-yl)sulfonylphenyl]methyl] imidazo[1,2-a]pyridine-6-carboxamide]	33.3	35.6	
O=C(NCc1ccc(S(=O)(=O)N2CCC2)cc1)c1ccc2nccn2c1 [Example 240, N-[[4-(azetidin-1-ylsulfonyl)phenyl]methyl] imidazo[1,2-a]pyridine-6-carboxamide]	41	140	
CC(C)(C)OC(=O)N1CCCCC12CCN(S(=O)(=O)c1ccc(CNC(=O)c3ccc4nccn4c3)cc1)C2 (stereo not drawn) [Example 243, tert-butyl 2-[4-[(imidazo[1,2-a]pyridine-6-carbonylamino)methyl]phenyl] sulfonyl-2,6-diazaspiro[4.5]decane-6-carboxylate]	14.9	43.3	
CN(C)C(=O)C1CN(S(=O)(=O)c2ccc(CNC(=O)c3ccc4nccn4c3)cc2)C1 [Example 244, N-[[4-[3-(dimethylcarbamoyl)azetidin-1-yl]sulfonylphenyl]methyl] imidazo[1,2-a]pyridine-6-carboxamide]	14.1	14.4	
O=C(NCc1ccc(S(=O)(=O)N2CC(O)C2)cc1)c1ccc2nccn2c1 [Example 245, N-[[4-(3-hydroxyazetidin-1-yl)sulfonylphenyl]methyl] imidazo[1,2-a]pyridine-6-carboxamide]	52.3	274	
O=C(NCc1ccc(S(=O)(=O)C2CCN(C3COC3)CC2)cc1)c1ccc2nccn2c1 [Example 248, N-[[4-[[1-(oxetan-3-yl)-4-piperidyl]sulfonyl]phenyl]methyl]imidazo[1,2-a] pyridine-6-carboxamide]	19.4		5.58
O=C(NCc1ccc(S(=O)(=O)C2CCN(C3COC3)CC2)cc1)c1cnc2nccn2c1 [Example 251, N-[[4-[[1-(oxetan-3-yl)-4-piperidyl]sulfonyl]phenyl]methyl]imidazo[1,2-a] pyrimidine-6-carboxamide]	4.13		121
O=C(NCc1ccc(S(=O)(=O)C2CCN(C3COC3)CC2)cc1)c1cc2ccncc2s1 [Example 252, N-[[4-[[1-(oxetan-3-yl)-4-piperidyl]sulfonyl]phenyl]methyl]thieno[2,3-c]pyridine-2-carboxamide]	4.27		1.48
O=C(NCc1ccc(S(=O)(=O)N2CC3(CCCNC3)C2)cc1)c1ccc2nccn2c1 [Example 253, N-[[4-(2,8-diazaspiro[3,5]nonan-2-ylsulfonyl)phenyl]methyl] imidazo[1,2-a]pyridine-6-carboxamide]	27.4	31.3	
O=C(NCc1ccc(S(=O)(=O)N2CCC3(CCCN3)C2)cc1)c1ccc2nccn2c1 (stereo not drawn) [Example 255, N-[[4-(1,7-diazaspiro[4.4]nonan-7-sulfonyl)phenyl]methyl] imidazo[1,2-a]pyridine-6-carboxamide]	57	36.2	
O=C(NCc1ccc(S(=O)(=O)N2CCC3(CCNCC3)C2)cc1)c1ccc2nccn2c1 [Example 256, N-[[4-(2,8-diazaspiro[4.5]decan-2-ylsulfonyl)phenyl]methyl] imidazo[1,2-a]pyridine-6-carboxamide]	53.7	66.9	
O=C(NCc1ccc(S(=O)(=O)N2CCC3(CCCN3)C2)cc1)c1ccc2nccn2c1 (stereo not drawn) [Example 257, N-[[4-(1,7-diazaspiro[4.4]nonan-7-ylsulfonyl)phenyl]methyl] imidazo[1,2-a]pyridine-6-carboxamide]	46.8		26.5
O=C(NCc1ccc(S(=O)(=O)C2CCCOC2)cc1)c1cc2cnccc2[nH]1 (stereo not drawn) [Example 266, N-[(4-tetrahydropyran-3-ylsulfonylphenyl)methyl]-1H-pyrrolo[3,2-c]pyridine-2-carboxamide]	33.1	18.5	
O=C(NCc1ccc(S(=O)(=O)C2CCCOC2)cc1)c1cnc2[nH]ncc2c1 (stereo not drawn) [Example 267, N-[(4-tetrahydropyran-3-ylsulfonylphenyl)methyl]-1H-pyrazolo[3,4-b]pyridine-5-carboxamide]	219	176	
O=C(NCc1ccc(S(=O)(=O)N2CC3(CCOCC3)C2)cc1)c1cnc2[nH]ncc2c1 [Example 269, N-[[4-(7-oxa-2-azaspiro[3.5]nonan-2-ylsulfonyl)phenyl]methyl]-1H-pyrazolo[3,4-b]pyridine-5-carboxamide]	113	45.1	
O=C(NCc1ccc(S(=O)(=O)N2CC3(C2)CC(F)(F)C3)cc1)c1ccc2nccn2c1 [Example 270, N-[[4-[(6,6-difluoro-2-azaspiro[3.3]heptan-2-yl)sulfonyl]phenyl]methyl] imidazo[1,2-a]pyridine-6-carboxamide]	8.77	6.07	
CN1CCC2(CC1)CN(S(=O)(=O)c1ccc(CNC(=O)c3ccc4nccn4c3)cc1)C2 [Example 271, N-[[4-[(7-methyl-2,7-diazaspiro[3.5]nonan-2-yl)sulfonyl]phenyl]methyl] imidazo[1,2-a]pyridine-6-carboxamide]	27.5	12.1	
O=C(NCc1ccc(S(=O)(=O)N2CC3(CCCO3)C2)cc1)c1ccc2nccn2c1 [Example 274, N-[(4-(5-oxa-2-azaspiro[3.4]octan-2-ylsulfonyl)phenyl]methyl] imidazo[1,2-a]pyridine-6-carboxamide]	19	5.93	
O=C(NCc1ccc(S(=O)(=O)N2CCC3(CCNC3=O)C2)cc1)c1cnc2[nH]ncc2c1 (stereo not drawn) [Example 282, N-[[4-[(1-oxo-2,7-diazaspiro[4.4]nonan-7-yl)sulfonyl)phenyl]methyl]-1H-pyrazolo[3,4-b]pyridine-5-carboxamide]	101	233	
CN1CCC2(C1)CN(S(=O)(=O)c1ccc(CNC(=O)c3cnc4[nH]ncc4c3)cc1)C2 [Example 283, N-[[4-[(7-methyl-2,7-diazaspiro[3.4]octan-2-yl)sulfonyl]phenyl]methyl]-1H-pyrazolo[3,4-b]pyridine-5-carboxamide]	199	129	
O=C(NCc1ccc(S(=O)(=O)N2CCC3(CCCO3)C2)cc1)c1cnc2[nH]ncc2c1 (stereo not drawn) [Example 284, N-[[4-(1-oxa-7-azaspiro[4.4]nonan-7-ylsulfonyl)phenyl]methyl]-1H-pyrazolo[3,4-b]pyridine-5-carboxamide]	70.9	42.9	
O=C(NCc1ccc(S(=O)(=O)N2CCC23COC3)cc1)c1cnc2[nH]ncc2c1 [Example 285, N-[[4-(6-oxa-1-azaspiro[3.3]heptan-1-ylsulfonyl)phenyl]methyl]-1H-pyrazolo[3,4-b]pyridine-5-carboxamide]	206	2000	

Now from value to molecule:

IC50 (NAMPT) [nM]	IC50 (A2780 cells; Homo sapiens, A2780, 72 h) [nM]	IC50 (A2780 cells) [nM]	SMILES
14.4	4.14		CC(C)(C)OC(=O)N1CCC2(CCN(S(=O)(=O)c3ccc(CNC(=O)c4ccc5nccn5c4)cc3)C2)C1 (stereo not drawn) [Example 241, tert-butyl 2-[4-[(imidazo[1,2-a]pyridine-6-carbonylamino)methyl]phenyl] sulfonyl-2,7-diazaspiro[4.4]nonane-7-carboxylate]
7.03	27.3		CN1CCN(C(=O)C2CN(S(=O)(=O)c3ccc(CNC(=O)c4ccc5nccn5c4)cc3)C2)CC1 [Example 246, N-[[4-[3-(4-methylpiperazine-1-carbonyl)azetidin-1-yl]sulfonylphenyl]methyl] imidazo[1,2-a]pyridine-6-carboxamide]
37.8	70		CC(=O)N1CC2(C1)CN(S(=O)(=O)c1ccc(CNC(=O)c3ccc4nccn4c3)cc1)C2 [Example 259, N-[[4-[(6-acetyl-2,6-diazaspiro[3.3]heptan-2-yl)sulfonyl]phenyl]methyl] imidazo[1,2-a]pyridine-6-carboxamide]
64.9	106		O=C(NCc1ccc(S(=O)(=O)N2CCC3(CCNC3)C2)cc1)c1ccc2nccn2c1 (stereo not drawn) [Example 262, N-[[4-(2,7-diazaspiro[4.4]nonan-2-ylsulfonyl)phenyl]methyl] imidazo[1,2-a]pyridine-6-carboxamide]
18.2	23.4		O=C(NCc1ccc(S(=O)(=O)N2CC3(CCOCC3)C2)cc1)c1cc2ccncc2o1 [Example 263, N-[[4-(7-oxa-2-azaspiro[3.5]nonan-2-ylsulfonyl)phenyl]methyl]furo [2,3-c]pyridine-2-carboxamide]
33.6	10		CN1CCOC2(C1)CN(S(=O)(=O)c1ccc(CNC(=O)c3ccc4nccn4c3)cc1)C2 [Example 272, N-[[4-[(8-methyl-5-oxa-2,8-diazaspiro[3.5]nonan-2-yl)sulfonyl]phenyl]methyl] imidazo[1,2-a]pyridine-6-carboxamide]
25.4	10.4		CN1CCCC12CN(S(=O)(=O)c1ccc(CNC(=O)c3ccc4nccn4c3)cc1)C2 [Example 273, N-[[4-[(5-methyl-2,5-diazaspiro[3.4]octan-2-yl)sulfonyl)phenyl]methyl] imidazo[1,2-a]pyridine-6-carboxamide]
30.4	50.3		O=C(NCc1ccc(S(=O)(=O)C2CCCOC2)cc1)c1cc2ccncc2o1 (stereo not drawn) [Example 275, N-[(4-tetrahydropyran-3-ylsulfonylphenyl)methyl]furo [2,3-c]pyridine-2-carboxamide]
32.9	19.9		O=C(NCc1ccc(S(=O)(=O)C2CCCOC2)cc1)c1ccc2nccn2c1 (stereo not drawn) [Example 276, N-[(4-tetrahydropyran-3-ylsulfonylphenyl)methyl] imidazo[1,2-a]pyridine-6-carboxamide]
2000	2000		Nc1ncc2c(n1)CN(C(=O)NCc1ccc(S(=O)(=O)C3CCOCC3)cc1)C2 [Example 277, 2-amino-N-[(4-tetrahydropyran-4-ylsulfonylphenyl)methyl]-5,7-dihydropyrrolo[3,4-d]pyrimidine-6-carboxamide]
95.6	378		O=C(NCc1ccc(S(=O)(=O)N2CC(F)(F)C2)cc1)c1cnc2[nH]ncc2c1 [Example 281, N-[[4-(3,3-difluoroazetidin-1-yl)sulfonylphenyl]methyl]-1H-pyrazolo[3,4-b]pyridine-5-carboxamide]

From US10696692B2, “Amido-benzyl sulfone and sulfoxide derivates” (Forma TM, LLC, priority 2012, dated 2020)
